± gives the standard deviation of the averaged measurements.
Test system: A204
Assay: relative viability vs DMSO control (72 h) (fraction); higher = more viable cells
Summary of the method: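 ATPLite readings, expressed as percent growth and averaged over up to triplicate wells, provided relative viability. Before reading, sarcoma cell lines seeded in 384-well plates to reach 80–90% confluence received 2.5 µl of serially diluted compound after 24 h, from source plates of 10 mM to 0.0002 mM. Plates were held 72 h at 37 °C, 5% CO2, with 0.1% DMSO as vehicle and a 5 µM positive control. The data were rescaled to 1 for full and 0 for none.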

SMILES	relative viability (0.00017 µM)	relative viability (0.00051 µM)	relative viability (0.00152 µM)	relative viability (0.00457 µM)	relative viability (0.01372 µM)	relative viability (0.04115 µM)	relative viability (0.1235 µM)	relative viability (0.3704 µM)	relative viability (1.111 µM)	relative viability (3.333 µM)	relative viability (10 µM)
CC(C)N1CCN(Cc2cnc(-c3cc(-c4cccc5[nH]ccc45)cc4[nH]ncc34)o2)CC1 [Nemiralisib]	0.981 ± 0.046	0.988 ± 0.022	0.998 ± 0.039	0.982 ± 0.015	0.97 ± 0.058	0.97 ± 0.017	0.956 ± 0.0079	0.897 ± 0.03	0.847 ± 0.053	0.631 ± 0.035	0.359 ± 0.021
Cc1ccc(NC(=O)c2ccc(CN3CCN(C)CC3)cc2)cc1Nc1nc(-c2cccnc2)cs1 [Masitinib]	1.01 ± 0.019	1.03 ± 0.039	1.06 ± 0.013	1.05 ± 0.065	1.09 ± 0.03	0.976 ± 0.033	0.772 ± 0.012	0.472 ± 0.011	0.303 ± 0.015	0.194 ± 0.015	0.0391 ± 0.0062
CCc1cc2c(cc1N1CCC(N3CCOCC3)CC1)C(C)(C)c1[nH]c3cc(C#N)ccc3c1C2=O [Alectinib]	1.09 ± 0.015	1.07 ± 0.028	1.09 ± 0.023	1.1 ± 0.036	1.08 ± 0.012	1.09 ± 0.0079	1.13 ± 0.021	1.13 ± 0.014	1.104 ± 0.005	1.14 ± 0.036	1.14 ± 0.07
COc1cc2nccc(Oc3ccc(NC(=O)Nc4cc(C)on4)c(Cl)c3)c2cc1OC [Tivozanib]	1.1 ± 0.05	1.07 ± 0.048	1.09 ± 0.032	1.08 ± 0.026	0.998 ± 0.063	0.712 ± 0.021	0.504 ± 0.038	0.438 ± 0.025	0.418 ± 0.029	0.348 ± 0.0075	0.228 ± 0.02

Source: the supplement of paper PMC10883282
